Each block holds one compound with its values, some of them ahead of it.
How the values were obtained:
[1] = biological target: T1, recombinant human PTPRD phosphatase (Homo sapiens, UniProt P23468); settings: cited from earlier work
T1 sequence (P23468 1357-1612 limits assumed): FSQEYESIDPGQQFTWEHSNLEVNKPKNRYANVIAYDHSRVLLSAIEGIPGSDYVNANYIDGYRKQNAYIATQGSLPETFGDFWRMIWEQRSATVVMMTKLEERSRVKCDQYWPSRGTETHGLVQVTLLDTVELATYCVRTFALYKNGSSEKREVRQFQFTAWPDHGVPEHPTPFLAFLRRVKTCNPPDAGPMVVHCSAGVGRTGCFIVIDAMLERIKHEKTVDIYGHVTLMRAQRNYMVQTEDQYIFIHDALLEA

PTPRJ phosphatase = biological target: T2, PTPRJ phosphatase (Homo sapiens, UniProt Q12913); assay: inhibition of pNPP hydrolysis by recombinant PTPRJ phosphatase; format: biochemical
T2 sequence (Q12913 997-1337 limits assumed): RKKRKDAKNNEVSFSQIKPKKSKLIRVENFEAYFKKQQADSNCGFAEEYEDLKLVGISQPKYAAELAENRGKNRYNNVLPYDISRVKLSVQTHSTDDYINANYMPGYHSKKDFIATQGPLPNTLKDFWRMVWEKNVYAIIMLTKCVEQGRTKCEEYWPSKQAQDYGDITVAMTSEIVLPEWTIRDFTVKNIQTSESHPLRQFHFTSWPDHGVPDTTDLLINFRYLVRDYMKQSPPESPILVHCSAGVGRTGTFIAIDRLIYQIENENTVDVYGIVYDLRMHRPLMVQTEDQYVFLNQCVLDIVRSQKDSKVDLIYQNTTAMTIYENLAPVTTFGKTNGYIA

[2] = acute ascending doses or 2-week repeated doses up to 20 mg/kg; cited from earlier work
PTPRF phosphatase [3] = settings: cited from earlier work
PTPRS phosphatase [4] = biological target: T3, PTPRS phosphatase (Homo sapiens, UniProt Q13332); settings: cited from earlier work
T3 sequence (Q13332 1393-1648 limits assumed): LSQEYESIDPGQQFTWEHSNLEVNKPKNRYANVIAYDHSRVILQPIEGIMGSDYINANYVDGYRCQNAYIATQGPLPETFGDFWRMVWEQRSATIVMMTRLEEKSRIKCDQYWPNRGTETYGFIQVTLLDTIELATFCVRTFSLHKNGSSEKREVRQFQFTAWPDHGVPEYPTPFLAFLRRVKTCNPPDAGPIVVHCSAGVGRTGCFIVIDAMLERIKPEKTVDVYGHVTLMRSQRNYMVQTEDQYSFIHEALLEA

[5] = biological target: T4, PTPN1 (PTP1B) phosphatase (Homo sapiens, UniProt P18031); assay: inhibition of pNPP hydrolysis by recombinant PTPN1; format: biochemical
T4 sequence (P18031 1-435): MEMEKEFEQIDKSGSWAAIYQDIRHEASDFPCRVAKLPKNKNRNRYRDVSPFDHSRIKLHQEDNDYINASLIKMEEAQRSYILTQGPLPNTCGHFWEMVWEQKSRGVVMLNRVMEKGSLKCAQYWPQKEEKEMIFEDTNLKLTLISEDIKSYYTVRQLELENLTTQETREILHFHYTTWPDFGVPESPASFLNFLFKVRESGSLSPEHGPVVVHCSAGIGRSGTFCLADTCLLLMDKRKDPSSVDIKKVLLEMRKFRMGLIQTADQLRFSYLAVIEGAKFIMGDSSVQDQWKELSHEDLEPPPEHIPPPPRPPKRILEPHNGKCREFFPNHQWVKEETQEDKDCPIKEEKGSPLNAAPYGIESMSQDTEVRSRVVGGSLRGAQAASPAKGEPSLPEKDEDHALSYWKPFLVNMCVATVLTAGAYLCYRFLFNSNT

[6] = biological target: T1, recombinant human PTPRD phosphatase; assay: inhibition of pNPP hydrolysis by recombinant PTPRD phosphatase
[7] = oral tolerability study in mice; design: species or system wildtype C57BL/6J or PTPRD knockout mice; settings: mouse, in vivo
PTPRS phosphatase [8] = biological target: T3, PTPRS phosphatase; assay: inhibition of pNPP hydrolysis by recombinant PTPRS phosphatase; format: biochemical; settings: relative to 7-BIA
PTPRF phosphatase [9] = assay: inhibition of pNPP hydrolysis by recombinant PTPRF phosphatase; format: biochemical; settings: relative to 7-BIA
[10] = absorption study, plasma levels in rats; format: in vivo; settings: male, Sprague Dawley, rat, 10 mg/kg
[11] = test system: sites of action (and side effects) of most marketed drugs; assay: EUROFINS assays for sites of action of marketed drugs; settings: read-out: EC50 at EUROFINS sites of action of marketed drugs; any of these sites
[12] = test system: other protein tyrosine phosphatases screened; assay: screen at other protein tyrosine phosphatases; format: biochemical

Compound: CCCCOc1cc2c(c(C=O)c1OC)CC(O)OC2=O (centres unmarked) [compound 1, 7-butoxy illudalic acid analog]
activity at PTPRD phosphatase (in words) [1]: active
potency of inhibition of PTPRD phosphatase dephosphorylation of p-NPP (in words) [1]: good potency
potency at PTPRJ (in words) (PTPRJ phosphatase): moderate potencies
toxicities in mice (in words) [2]: no apparent toxicities
activity at PTPRF phosphatase (in words) (PTPRF phosphatase [3]): active
activity at PTPRS phosphatase (in words) (PTPRS phosphatase [4]): active

Compound: COc1c(OCc2ccc(Oc3ccccc3)cc2)cc2c(c1C=O)CC(O)OC2=O (centres unmarked) [compound 40, 3-Hydroxy-6-methoxy-1-oxo-7-((4-phenoxybenzyl)oxy)isochromane-5-carbaldehyde]
potency in inhibiting PTPN1/PTP1B (in words) [5]: relatively high potency

Compound: COc1c(OCC2CCCC2)cc2c(c1C=O)CC(O)OC2=O (centres unmarked) [compound 58, 7-Cyclopentylmethoxy-3-hydroxy-6-methoxy-1-oxo-isochroman-5-carbaldehyde]
weight lost ([7]; 200 mg/kg): 1.3 g
weight lost ([7]; 400 mg/kg): 3.4 g
weight lost ([7]; 600 mg/kg): 1.1 g
weight lost ([7]; 1000 mg/kg): 9 g
greater selectivity for PTPRD vs PTPRS than 7-BIA (PTPRS phosphatase [8]): 1.6 fold
greater selectivity for PTPRD vs PTPRF than 7-BIA (PTPRF phosphatase [9]): 1.4 fold
half-life [10]: ~50 min
concentration at 30 min ([10]; ip): 577 ng/g
concentration at 120 min ([10]; ip): 10.3 ng/g
concentration at 240 min ([10]; ip): 1.84 ng/g
concentration at 5 min ([10]; iv): 24600 ng/g
concentration at 30 min ([10]; iv): 92.6 ng/g
concentration at 240 min ([10]; iv): 1.03 ng/g
concentration at 30 min ([10]; po): 82.4 ng/g
concentration at 120 min ([10]; po): 24.2 ng/g
concentration at 240 min ([10]; po): 4.62 ng/g
greater selectivity for PTPRD vs PTPRJ than 7-BIA (PTPRJ phosphatase; relative to 7-BIA): 3.5 fold
EC50 [11]: ≥ 100 µM
greater selectivity for PTPRD vs PTPN1/PTP1B than 7-BIA ([5]; relative to 7-BIA): 1.8 fold
potency at other protein tyrosine phosphatases screened (in words) [12]: no substantial potency

Compound: CCCCOc1cc2c(=O)occc2c(C=O)c1OC [compound 22]
activity at PTPRD (in words) [6]: activity was lost

Other lines, results leading:

activity at PTPRD (in words) [6]: activity was lost
Compound: CCCCOc1cc2c(c(C=O)c1OCCCC)CC(O)OC2=O (centres unmarked) [compound 24]

activity at PTPRD (in words) [6]: no improvement in PTPRD activity
Compound: COc1cccc(COc2cc3c(c(C=O)c2OC)CC(O)OC3=O)c1 (centres unmarked) [compound 30, 3-Hydroxy-6-methoxy-7-((3-methoxybenzyl)oxy)-1-oxoisochromane-5-carbaldehyde]

activity at PTPRD (in words) [6]: no improvement in PTPRD activity
Compound: COc1ccccc1COc1cc2c(c(C=O)c1OC)CC(O)OC2=O (centres unmarked) [compound 31]

activity at PTPRD (in words) [6]: activity was lost
Compound: CCCCOc1cc2c(c(C=O)c1OCC)CC(O)OC2=O (centres unmarked) [compound 23]
